Laboratory results as given in publication PMC4104591 (Structure (London, England : 1993), 2013).

Biological target: mutant-MDM2-p53 complex (Homo sapiens, UniProt Q00987, E23G/S22P)
Assay: Competitive AIDA-NMR antagonist-induced dissociation assay
Type: binding
Settings: compared with the WT-MDM2-p53 complex

Sequence of mutant-MDM2-p53 complex (Q00987 1-125 S22P/E23G, one chain of several): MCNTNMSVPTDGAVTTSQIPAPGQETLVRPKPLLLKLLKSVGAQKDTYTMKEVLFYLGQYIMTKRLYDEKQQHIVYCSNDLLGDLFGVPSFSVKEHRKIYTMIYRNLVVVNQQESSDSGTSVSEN

COc1ccc(C2=N[C@@H](c3ccc(Cl)cc3)[C@@H](c3ccc(Cl)cc3)N2C(=O)N2CCNC(=O)C2)c(OC(C)C)c1 [nutlin-3]
effectiveness in dissociating the mutant-MDM2-p53 complex: less effective
